Columns and labels:
[1] = target: T1, HCV NS5B RNA dependent RNA polymerase (Hepatitis C virus genotype 1b, UniProt P26663); experiment: NS5B inhibition assay (primer dependent elongation, poly rA-U12); type: biochemical; conditions: read-out: Anti-NS5B Activity (% Inh., 100 µM)
T1 construct: HCV NS5B RNA dependent RNA polymerase activity
Experimental: The compounds 1a–e and 2a–e were reconstituted in DMSO as 50 mM stocks, and serially diluted in DMSO to obtain working stocks. Wedelolactone, a known inhibitor of HCV NS5B activity, was employed as a reference compound. Preliminary screening was carried out at 100 μM to identify a wider range of compounds.
All synthesized compounds were evaluated for their effect on HCV NS5B RNA dependent RNA polymerase activity in primer dependent elongation assays as previously described. Activity of NS5B in the absence of the inhibitor but containing an equivalent amount of DMSO (control reaction) was set at 100% and that in the presence of the inhibitor was quantified relative to this control.

stomach = experiment: Gastric-ulcerogenic effect (ulcer score); type: in vivo, mice; conditions: 200 mg/kg p.o.; animals with lesions/animals
[2] = tested on: lipid peroxidation in stomach; experiment: Lipid peroxidation in stomach (TBARS); type: in vivo, mice; conditions: 100 mg/kg, 8 h after analgesic test
[3] = tested on: acetic acid-induced abdominal constriction; experiment: Acetic acid-induced writhing (Koster) test; type: in vivo, mice; conditions: for Writhing test (% inh.) / Writhing test (Mean ± SEM): 100 mg/kg oral; for Writhing test (Mean ± SEM): writhings counted 10 min from 5 min after acetic acid; for analgesic activity (in words): 100 mg/kg
Experimental: Test samples, suspended in a mixture of distilled water and 0.5% sodium carboxymethyl cellulose (CMC), were given orally to the animals. The control group animals received the same experimental handling as those of the test groups, except that the drug treatment was replaced with appropriate volumes of the dosing vehicle. […] One hour after oral administration of test sample, each mouse was injected intraperitoneally with 3% (w/v) acetic acid solution (0.1 mL/10 g, bw). Starting 5 min after the acetic acid injection, the number of muscular contractions on mice were counted for a period of 10 min. A significant reduction in the number of writhings by any treatment as compared to the number of writhings in control animals was considered a positive analgesic response. The analgesic activity was expressed as a percentage change from writhing controls. ASA was used as a reference compound and administered at 200 mg/kg.

[4] = tested on: carrageenan-induced hind paw edema; experiment: Carrageenan-induced hind paw edema model; type: in vivo, mice; conditions: for anti-inflammatory activity (in words): all doses, all measurement intervals
Experimental: Locally bred balb/c mice of both sexes (30-35 g) were purchased from the animal breeding laboratories of Inonu University ([…], Turkey). The animals were fed a standard pellet diet and water ad libitum in a temperature-controlled room. On the day before the treatments, food was withdrawn, but the animals were allowed free access of water. The allocation of animals to different groups was randomized, and the experiments were carried out under blind conditions. Mice used in the present study were cared for in accordance with the directory of the Inonu University Animal Care Unit, which applies the guidelines of the National Institutes of Health on laboratory animal welfare. Procedures involving animals and their care were conducted in conformity with international laws and policies and animal studies accepted by Inonu University Ethical Council (2011/A17). Test samples, suspended in a mixture of distilled water and 0.5% sodium carboxymethyl cellulose (CMC), were given orally to the animals. The control group animals received the same experimental handling as those of the test groups, except that the drug treatment was replaced with appropriate volumes of the dosing vehicle. […] For the preliminary activity screening, each test group was composed of four mice. […] Because of the daily changing circumstance, we used another control group for each experiment. For the determination of the effects on carrageenan-induced paw oedema, the modified method of Kasahara et al. was employed. One hour after the oral administration of either test sample or dosing vehicle, each mouse was injected with a freshly prepared (0.5 mg/25 μL) suspension of carrageenan (Sigma, St. Louis, MO, USA) in physiological saline (154 mM NaCl). The subplantar tissue of the right hind paw was the injection site for all mice. The contralateral paw (left hind paw) was injected with 25 μL saline solution as the internal control. […] The difference in footpad thickness between the right and left foot indicated the degree of inflammation for each mouse. The change in paw volume, either increase or decrease, was calculated and compared with the control group (dosing vehicle) and analyzed using statistical methods.

T1 sequence (P26663 2420-3010): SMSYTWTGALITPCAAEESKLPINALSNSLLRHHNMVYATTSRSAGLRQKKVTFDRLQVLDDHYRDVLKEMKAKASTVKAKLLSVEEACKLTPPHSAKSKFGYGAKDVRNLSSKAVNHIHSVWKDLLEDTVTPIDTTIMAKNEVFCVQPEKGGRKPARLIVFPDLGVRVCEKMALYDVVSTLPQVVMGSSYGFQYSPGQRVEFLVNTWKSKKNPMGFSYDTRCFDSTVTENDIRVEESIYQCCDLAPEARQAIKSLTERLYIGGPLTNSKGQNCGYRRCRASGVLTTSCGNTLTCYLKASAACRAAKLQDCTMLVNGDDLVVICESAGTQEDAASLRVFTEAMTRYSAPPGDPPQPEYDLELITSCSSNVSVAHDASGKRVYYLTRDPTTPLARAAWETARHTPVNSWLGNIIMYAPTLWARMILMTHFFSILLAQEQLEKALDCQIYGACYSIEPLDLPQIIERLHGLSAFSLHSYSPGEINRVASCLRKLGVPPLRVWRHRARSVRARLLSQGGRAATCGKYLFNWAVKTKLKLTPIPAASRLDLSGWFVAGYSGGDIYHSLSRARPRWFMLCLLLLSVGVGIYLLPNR

| inhibition at 100 µM [1] | Lipid peroxidation [2] | melting point | Structure (SMILES) | Ulcer score (stomach) | Writhing test (% inh.) [3] | Writhing test (Mean ± SEM) [3] | Swelling in thickness ± SEM ([4]; 50 mg/kg per os, 90 min) | percent inhibitory activity ([4]; 50 mg/kg per os, 90 min) | Swelling in thickness ± SEM ([4]; 50 mg/kg per os, 180 min) | percent inhibitory activity ([4]; 50 mg/kg per os, 180 min) | Swelling in thickness ± SEM ([4]; 50 mg/kg per os, 270 min) | percent inhibitory activity ([4]; 50 mg/kg per os, 270 min) | Swelling in thickness ± SEM ([4]; 50 mg/kg per os, 360 min) | percent inhibitory activity ([4]; 50 mg/kg per os, 360 min) | Swelling in thickness ± SEM ([4]; 100 mg/kg per os, 90 min) | Swelling in thickness ± SEM ([4]; 100 mg/kg per os, 180 min) | Swelling in thickness ± SEM ([4]; 100 mg/kg per os, 270 min) | percent inhibitory activity ([4]; 100 mg/kg per os, 270 min) | Swelling in thickness ± SEM ([4]; 100 mg/kg per os, 360 min) | percent inhibitory activity ([4]; 100 mg/kg per os, 360 min) | also measured |
| --- | --- | --- | --- | --- | --- | --- | --- | --- | --- | --- | --- | --- | --- | --- | --- | --- | --- | --- | --- | --- | --- |
| 14.6% | 406.9 ± 27.0 nmol TBARS/g wet weight | 228 to 231 °C | Cc1ccc(-c2cc(C(F)(F)F)nn2-c2ccc(S(=O)(=O)NC(=S)Nc3ccc(C(F)(F)F)cc3)cc2)cc1 [Compound 1e] | 0/5 | −37.9% | 24.0 ± 3.0 | 47.0 ± 3.3 × 10^−2 mm | 34.7% | 57.0 ± 6.2 × 10^−2 mm | 38.0% | 92.0 ± 1.2 × 10^−2 mm | 23.9% | 106.0 ± 6.7 × 10^−2 mm | 17.8% | 88.4 ± 2.6 × 10^−2 mm | 83.9 ± 3.4 × 10^−2 mm | 88.7 ± 11.4 × 10^−2 mm | 26.7% | 83.4 ± 9.6 × 10^−2 mm | 35.4% | percent inhibitory activity ([4]; 100 mg/kg per os, 180 min): 8.8%; Swelling in thickness ± SEM ([4]; 200 mg/kg per os, 90 min): 76.9 ± 5.7 × 10^−2 mm; Swelling in thickness ± SEM ([4]; 200 mg/kg per os, 180 min): 83.0 ± 6.8 × 10^−2 mm; Swelling in thickness ± SEM ([4]; 200 mg/kg per os, 270 min): 110.5 ± 7.5 × 10^−2 mm; Swelling in thickness ± SEM ([4]; 200 mg/kg per os, 360 min): 103.7 ± 5.2 × 10^−2 mm; percent inhibitory activity ([4]; 200 mg/kg per os, 360 min): 19.6%; anti-inflammatory activity (in words) [4]: moderate-to-good |
| 19.4% | 330.4 ± 9.7 nmol TBARS/g wet weight | 250 °C | Cc1ccc(-c2cc(C(F)(F)F)nn2-c2ccc(S(=O)(=O)/N=C3\SCC(=O)N3Cc3ccccc3)cc2)cc1 [Compound 2c, N-(3-Benzyl-4-oxo-1,3-thiazolidin-2-yldene)-4-[5-(4-methylphenyl)-3-(trifluoromethyl)-1H-pyrazol-1-yl]benzenesulfonamide] | 0/5 | 32.2% | 11.8 ± 1.4 | 65.0 ± 6.1 × 10^−2 mm | 9.7% | 74.0 ± 8.8 × 10^−2 mm | 19.5% | 95.0 ± 10.0 × 10^−2 mm | 21.4% | 110.0 ± 7.1 × 10^−2 mm | 14.7% | 83.4 ± 8.7 × 10^−2 mm | 90.6 ± 11.7 × 10^−2 mm | 91.7 ± 16.7 × 10^−2 mm | 24.2% | 118.2 ± 7.1 × 10^−2 mm | 8.3% | analgesic activity (in words) [3]: not statistically significant; Swelling in thickness ± SEM ([4]; 200 mg/kg per os, 90 min): 69.5 ± 8.3 × 10^−2 mm; percent inhibitory activity ([4]; 200 mg/kg per os, 90 min): 3.4%; Swelling in thickness ± SEM ([4]; 200 mg/kg per os, 180 min): 75.6 ± 8.3 × 10^−2 mm; percent inhibitory activity ([4]; 200 mg/kg per os, 180 min): 17.8%; Swelling in thickness ± SEM ([4]; 200 mg/kg per os, 270 min): 133.2 ± 14.3 × 10^−2 mm; Swelling in thickness ± SEM ([4]; 200 mg/kg per os, 360 min): 120.1 ± 5.3 × 10^−2 mm; percent inhibitory activity ([4]; 200 mg/kg per os, 360 min): 6.9% |
| 31.3% | 350.2 ± 9.9 nmol TBARS/g wet weight | 270 to 272 °C | Cc1ccc(-c2cc(C(F)(F)F)nn2-c2ccc(S(=O)(=O)/N=C3\SCC(=O)N3c3ccc([N+](=O)[O-])cc3)cc2)cc1 [Compound 2d, N-[3-(4-Nitrophenyl)-4-oxo-1,3-thiazolidin-2-yldene)-4-[5-(4-methylphenyl)-3-(trifluoromethyl)-1H-pyrazol-1-yl]benzenesulfonamide] | 0/5 | 31% | 12.0 ± 2.6 | 47.0 ± 3.3 × 10^−2 mm | 34.7% | 47.0 ± 3.7 × 10^−2 mm | 48.9% | 89.0 ± 6.5 × 10^−2 mm | 26.4% | 110.0 ± 6.7 × 10^−2 mm | 14.7% | 73.2 ± 11.1 × 10^−2 mm | 100.6 ± 5.8 × 10^−2 mm | 98.2 ± 16.7 × 10^−2 mm | 21.6% | 120.9 ± 9.3 × 10^−2 mm | 6.3% | analgesic activity (in words) [3]: not statistically significant; Swelling in thickness ± SEM ([4]; 200 mg/kg per os, 90 min): 80.6 ± 9.4 × 10^−2 mm; Swelling in thickness ± SEM ([4]; 200 mg/kg per os, 180 min): 86.0 ± 9.4 × 10^−2 mm; percent inhibitory activity ([4]; 200 mg/kg per os, 180 min): 6.5%; Swelling in thickness ± SEM ([4]; 200 mg/kg per os, 360 min): 108.6 ± 5.6 × 10^−2 mm; percent inhibitory activity ([4]; 200 mg/kg per os, 360 min): 15.8%; anti-inflammatory activity (in words) [4]: moderate-to-good |

From paper PMC6269910 (Molecules, 2013)
